According to the CheMixHub viscosity set:
± gives the uncertainty stated by the source.

Experiment: xn = mol fraction of the nth substance listed

O=[N+]([O-])c1ccccc1 + CCCC(C)O
viscosity [mPa·s], 100 kPa
Conditions	x1 = 0.081	x1 = 0.1601	x1 = 0.24	x1 = 0.35	x1 = 0.4401	x1 = 0.56	x1 = 0.6503	x1 = 0.7402	x1 = 0.8504	x1 = 0.9404
293.15 K	3.323 ± 0.059	2.827 ± 0.053	2.444 ± 0.047	2.095 ± 0.043	1.931 ± 0.041	1.863 ± 0.04	1.867 ± 0.04	1.914 ± 0.04	1.999 ± 0.042	2.054 ± 0.042
298.15 K	2.753 ± 0.051	2.364 ± 0.046	2.068 ± 0.042	1.809 ± 0.039	1.697 ± 0.037	1.67 ± 0.037	1.684 ± 0.037	1.738 ± 0.038	1.821 ± 0.039	1.878 ± 0.04
303.15 K	2.317 ± 0.046	2.016 ± 0.042	1.794 ± 0.039	1.598 ± 0.036	1.517 ± 0.035	1.503 ± 0.035	1.523 ± 0.035	1.579 ± 0.036	1.66 ± 0.037	1.718 ± 0.038
308.15 K	1.993 ± 0.041	1.776 ± 0.039	1.608 ± 0.036	1.454 ± 0.034	1.385 ± 0.033	1.36 ± 0.033	1.377 ± 0.033	1.421 ± 0.034	1.497 ± 0.035	1.568 ± 0.036
313.15 K	1.711 ± 0.038	1.545 ± 0.036	1.417 ± 0.034	1.301 ± 0.032	1.249 ± 0.032	1.239 ± 0.032	1.259 ± 0.032	1.302 ± 0.032	1.378 ± 0.033	1.451 ± 0.034
318.15 K	1.497 ± 0.035	1.375 ± 0.033	1.28 ± 0.032	1.188 ± 0.031	1.148 ± 0.03	1.135 ± 0.03	1.15 ± 0.03	1.188 ± 0.031	1.26 ± 0.032	1.338 ± 0.033
323.15 K	1.311 ± 0.032	1.227 ± 0.031	1.159 ± 0.03	1.089 ± 0.029	1.055 ± 0.029	1.044 ± 0.029	1.057 ± 0.029	1.091 ± 0.029	1.16 ± 0.03	1.238 ± 0.032

CCCCCCCC + C1CCCCC1
Conditions	viscosity [mPa·s]
298.15 K, 100 kPa, x2 = 0.2	0.5398 ± 0.022
298.15 K, 100 kPa, x2 = 0.4	0.5777 ± 0.023
298.15 K, 100 kPa, x2 = 0.6	0.6273 ± 0.025
298.15 K, 100 kPa, x2 = 0.8	0.7162 ± 0.029
298.15 K, 101.33 kPa, x2 = 0.0972	0.516 ± 0.004
298.15 K, 101.33 kPa, x2 = 0.1084	0.5318 ± 0.0049
298.15 K, 101.33 kPa, x2 = 0.2042	0.53 ± 0.004
298.15 K, 101.33 kPa, x2 = 0.2223	0.549 ± 0.005
298.15 K, 101.33 kPa, x2 = 0.3014	0.548 ± 0.004
298.15 K, 101.33 kPa, x2 = 0.3199	0.569 ± 0.0052
298.15 K, 101.33 kPa, x2 = 0.4044	0.568 ± 0.004
298.15 K, 101.33 kPa, x2 = 0.412	0.5851 ± 0.0053
298.15 K, 101.33 kPa, x2 = 0.5009	0.607 ± 0.0055
298.15 K, 101.33 kPa, x2 = 0.5017	0.591 ± 0.004
298.15 K, 101.33 kPa, x2 = 0.5763	0.628 ± 0.0056
298.15 K, 101.33 kPa, x2 = 0.6029	0.62 ± 0.005
298.15 K, 101.33 kPa, x2 = 0.6597	0.6568 ± 0.0058
298.15 K, 101.33 kPa, x2 = 0.7041	0.661 ± 0.005
298.15 K, 101.33 kPa, x2 = 0.7236	0.6788 ± 0.006
298.15 K, 101.33 kPa, x2 = 0.7926	0.7148 ± 0.0062
298.15 K, 101.33 kPa, x2 = 0.8014	0.705 ± 0.005
298.15 K, 101.33 kPa, x2 = 0.8586	0.8162 ± 0.007
298.15 K, 101.33 kPa, x2 = 0.8971	0.774 ± 0.005
298.15 K, 101.33 kPa, x2 = 0.9173	0.8737 ± 0.0074
298.15 K, 101.33 kPa, x2 = 0.9767	0.8737 ± 0.0074
303.15 K, 101 kPa, x2 = 0.1031	0.4956 ± 0.0038
303.15 K, 101 kPa, x2 = 0.1978	0.51 ± 0.0038
303.15 K, 101 kPa, x2 = 0.2979	0.5238 ± 0.0039
303.15 K, 101 kPa, x2 = 0.4018	0.5434 ± 0.004
303.15 K, 101 kPa, x2 = 0.4842	0.5614 ± 0.004
303.15 K, 101 kPa, x2 = 0.7004	0.6348 ± 0.0044
303.15 K, 101 kPa, x2 = 0.8984	0.7473 ± 0.0049
303.15 K, 101.33 kPa, x2 = 0.0972	0.487 ± 0.004
303.15 K, 101.33 kPa, x2 = 0.2042	0.498 ± 0.004
303.15 K, 101.33 kPa, x2 = 0.3014	0.515 ± 0.004
303.15 K, 101.33 kPa, x2 = 0.4044	0.533 ± 0.004
303.15 K, 101.33 kPa, x2 = 0.5017	0.554 ± 0.004
303.15 K, 101.33 kPa, x2 = 0.6029	0.581 ± 0.004
303.15 K, 101.33 kPa, x2 = 0.7041	0.614 ± 0.005
303.15 K, 101.33 kPa, x2 = 0.8014	0.656 ± 0.005
303.15 K, 101.33 kPa, x2 = 0.8971	0.717 ± 0.005
308.15 K, 101.33 kPa, x2 = 0.0972	0.459 ± 0.004
308.15 K, 101.33 kPa, x2 = 0.2042	0.469 ± 0.004
308.15 K, 101.33 kPa, x2 = 0.3014	0.483 ± 0.004
308.15 K, 101.33 kPa, x2 = 0.4044	0.501 ± 0.004
308.15 K, 101.33 kPa, x2 = 0.5017	0.518 ± 0.004
308.15 K, 101.33 kPa, x2 = 0.6029	0.543 ± 0.004
308.15 K, 101.33 kPa, x2 = 0.7041	0.573 ± 0.004
308.15 K, 101.33 kPa, x2 = 0.8014	0.608 ± 0.004
308.15 K, 101.33 kPa, x2 = 0.8971	0.664 ± 0.005
323.15 K, 100 kPa, x2 = 0.2	0.4103 ± 0.017
323.15 K, 100 kPa, x2 = 0.4	0.4326 ± 0.018
323.15 K, 100 kPa, x2 = 0.6	0.4655 ± 0.019
323.15 K, 100 kPa, x2 = 0.8	0.5138 ± 0.021

ClC(Cl)=C(Cl)Cl + CCOCCO
viscosity [mPa·s], 101.33 kPa
Conditions	x1 = 0.1174	x1 = 0.2104	x1 = 0.323	x1 = 0.4392	x1 = 0.5276	x1 = 0.6168	x1 = 0.7085	x1 = 0.8053	x1 = 0.9054
303.15 K	1.513 ± 0.039	1.396 ± 0.036	1.272 ± 0.033	1.149 ± 0.03	1.065 ± 0.028	0.992 ± 0.027	0.926 ± 0.025	0.869 ± 0.024	0.822 ± 0.022
313.15 K	1.201 ± 0.032	1.132 ± 0.03	1.049 ± 0.028	0.968 ± 0.026	0.91 ± 0.025	0.857 ± 0.023	0.809 ± 0.022	0.769 ± 0.021	0.739 ± 0.021

CC(C)CCl + CCCCO
viscosity [mPa·s], 101.33 kPa
Conditions	x1 = 0.1061	x1 = 0.207	x1 = 0.3058	x1 = 0.4036	x1 = 0.4999	x1 = 0.6059	x1 = 0.7007	x1 = 0.7972	x1 = 0.8971
298.15 K	1.981 ± 0.015	1.554 ± 0.013	1.233 ± 0.011	0.9932 ± 0.0093	0.8229 ± 0.0082	0.6801 ± 0.0073	0.5857 ± 0.0067	0.515 ± 0.0063	0.4612 ± 0.006
313.15 K	1.395 ± 0.011	1.121 ± 0.0094	0.9144 ± 0.0082	0.7548 ± 0.0073	0.6405 ± 0.0066	0.5441 ± 0.006	0.4768 ± 0.0057	0.4261 ± 0.0054	0.3888 ± 0.0052

CCCCCO + CO
298.15 K, 101.33 kPa
Conditions	viscosity [mPa·s]
x2 = 0.1748	2.71 ± 0.058
x2 = 0.2198	2.528 ± 0.053
x2 = 0.327	2.143 ± 0.042
x2 = 0.4302	1.813 ± 0.034
x2 = 0.5186	1.57 ± 0.028
x2 = 0.5951	1.372 ± 0.024
x2 = 0.652	1.236 ± 0.021
x2 = 0.7911	0.932 ± 0.015
x2 = 0.8761	0.77 ± 0.012

CCCCCCCC + CCCCCC
viscosity [mPa·s]
Conditions	x2 = 0.1072	x2 = 0.2073	x2 = 0.2375	x2 = 0.3034	x2 = 0.4038	x2 = 0.5101	x2 = 0.6111	x2 = 0.7056	x2 = 0.805	x2 = 0.9018
294.65 K, 100 kPa	–	–	0.432 ± 0.087	–	–	–	–	–	–	–
298.15 K, 101.33 kPa	0.4782 ± 0.0069	0.4598 ± 0.0067	–	0.4414 ± 0.0065	0.4124 ± 0.0062	0.392 ± 0.006	0.3697 ± 0.0057	0.351 ± 0.0055	0.3326 ± 0.0053	0.3172 ± 0.0052

ClC(Cl)=C(Cl)Cl + CC(C)CCO
303.15 K, 101.33 kPa
Conditions	viscosity [mPa·s]
x1 = 0.0975	2.635 ± 0.017
x1 = 0.2467	2.045 ± 0.013
x1 = 0.3283	1.773 ± 0.011
x1 = 0.4163	1.524 ± 0.01
x1 = 0.5256	1.293 ± 0.009
x1 = 0.6182	1.148 ± 0.008
x1 = 0.7334	1.013 ± 0.007
x1 = 0.8214	0.934 ± 0.006
x1 = 0.9161	0.864 ± 0.006

CC(C)CCl + CCC(C)O
viscosity [mPa·s], 101.33 kPa
Conditions	x1 = 0.1077	x1 = 0.2064	x1 = 0.3079	x1 = 0.4066	x1 = 0.5036	x1 = 0.648	x1 = 0.7018	x1 = 0.805	x1 = 0.8972
298.15 K	1.946 ± 0.018	1.381 ± 0.013	1.046 ± 0.011	0.8335 ± 0.0091	0.7002 ± 0.008	0.5685 ± 0.0069	0.5343 ± 0.0066	0.4815 ± 0.0062	0.4478 ± 0.006
313.15 K	1.254 ± 0.012	0.9644 ± 0.0097	0.7565 ± 0.0081	0.6299 ± 0.0071	0.5461 ± 0.0064	0.4591 ± 0.0058	0.4357 ± 0.0056	0.4015 ± 0.0054	0.3778 ± 0.0052
